Data as given in PubChem BioAssay AID2060601 (Molecular Pharmacology Branch, DTP, NCI, 2025).
pIC50: −log10 of the molar value.

Tested on: 874868-142-R-J2-PDC complex spheroids, growth % test/control
Assay: Anticancer human tumor 874868-142-R-J2-PDC patient-derived head and neck squamous carcinoma cell line growth inhibition [CLK]
Conditions: for pIC50: curve of first compound; for viability, T/C: stronger effect = lower value
Outline: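 Patient-derived tumor cells grown as complex spheroids with HUVEC endothelial cells and mesenchymal stem cells, treated with drug combinations. Concentrations descend in half-log steps from near clinical Cmax, or from 10 microM if Cmax unknown.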

[1] = second compound 0.0316 µM, first compound 0.0316 µM
[2] = second compound 0.0316 µM, first compound 0.1 µM
[3] = second compound 0.0316 µM, first compound 0.316 µM
[4] = second compound 0.0316 µM, first compound 1 µM
[5] = second compound 0.0316 µM, first compound 3.16 µM
[6] = second compound 0.0316 µM, first compound 10 µM
[7] = second compound 0.1 µM, first compound 0.0316 µM
[8] = second compound 0.1 µM, first compound 0.1 µM
[9] = second compound 0.1 µM, first compound 0.316 µM
[10] = second compound 0.1 µM, first compound 1 µM
[11] = second compound 0.1 µM, first compound 3.16 µM
[12] = second compound 0.1 µM, first compound 10 µM
[13] = second compound 0.316 µM, first compound 0.0316 µM
[14] = second compound 0.316 µM, first compound 0.1 µM
[15] = second compound 0.316 µM, first compound 0.316 µM
[16] = second compound 0.316 µM, first compound 1 µM
[17] = second compound 0.316 µM, first compound 3.16 µM
[18] = second compound 0.316 µM, first compound 10 µM
[19] = second compound 1 µM, first compound 0.0316 µM
[20] = second compound 1 µM, first compound 0.1 µM
[21] = second compound 1 µM, first compound 0.316 µM
[22] = second compound 1 µM, first compound 1 µM
[23] = second compound 1 µM, first compound 3.16 µM
[24] = second compound 1 µM, first compound 10 µM
[25] = second compound 3.16 µM, first compound 0.0316 µM
[26] = second compound 3.16 µM, first compound 0.1 µM
[27] = second compound 3.16 µM, first compound 0.316 µM
[28] = second compound 3.16 µM, first compound 1 µM
[29] = second compound 3.16 µM, first compound 3.16 µM
[30] = second compound 3.16 µM, first compound 10 µM
[31] = second compound 10 µM, first compound 0.0316 µM
[32] = second compound 10 µM, first compound 0.1 µM
[33] = second compound 10 µM, first compound 0.316 µM
[34] = second compound 10 µM, first compound 1 µM
[35] = second compound 10 µM, first compound 3.16 µM
[36] = second compound 10 µM, first compound 10 µM
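Note: spheroids exposed to the compounds for 7 days.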
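Throughout, for viability, T/C: 100% = DMSO vehicle control viability.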

Nc1ccn(C2OC(CO)C(O)C2(F)F)c(=O)n1 (centres undefined) + CN1CCN(c2cc(C(=O)Nc3cc4cc(-c5cnn(C)c5)ccc4cn3)ccn2)CC1
pIC50 (second compound 0.0316 µM): 6.31 | pIC50 (second compound 0.1 µM): 6.33 | pIC50 (second compound 0.316 µM): > 7.50 | pIC50 (second compound 1 µM): > 7.50 | pIC50 (second compound 3.16 µM): > 7.50 | pIC50 (second compound 10 µM): > 7.50 | viability, T/C [1]: 80.5% | viability, T/C [2]: 72.9% | viability, T/C [3]: 58.7% | viability, T/C [4]: 37.6% | viability, T/C [5]: 20.5% | viability, T/C [6]: 26.1% | viability, T/C [7]: 62.2% | viability, T/C [8]: 70.5% | viability, T/C [9]: 61.4% | viability, T/C [10]: 26.8% | viability, T/C [11]: 19.9% | viability, T/C [12]: 24.1% | viability, T/C [13]: 14.3% | viability, T/C [14]: 14.6% | viability, T/C [15]: 11.8% | viability, T/C [16]: 9.83% | viability, T/C [17]: 11.6% | viability, T/C [18]: 11.8% | viability, T/C [19]: 0.24% | viability, T/C [20]: 0.22% | viability, T/C [21]: 0.33% | viability, T/C [22]: 0.18% | viability, T/C [23]: 0.28% | viability, T/C [24]: 0.2% | viability, T/C [25]: 0.26% | viability, T/C [26]: 0.23% | viability, T/C [27]: 0.16% | viability, T/C [28]: 0.18% | viability, T/C [29]: 0.19% | viability, T/C [30]: 0.43% | viability, T/C [31]: 0.14% | viability, T/C [32]: 0.19% | viability, T/C [33]: 0.23% | viability, T/C [34]: 0.2% | viability, T/C [35]: 0.25% | viability, T/C [36]: 1.04%

O=c1[nH]cc(F)c(=O)[nH]1 + CN1CCN(c2cc(C(=O)Nc3cc4cc(-c5cnn(C)c5)ccc4cn3)ccn2)CC1
pIC50 (second compound 0.0316 µM): 5.63 | pIC50 (second compound 0.1 µM): 6.18 | pIC50 (second compound 0.316 µM): > 7.50 | pIC50 (second compound 1 µM): > 7.50 | pIC50 (second compound 3.16 µM): > 7.50 | pIC50 (second compound 10 µM): > 7.50 | viability, T/C [1]: 99.7% | viability, T/C [2]: 74.5% | viability, T/C [3]: 83.8% | viability, T/C [4]: 70.8% | viability, T/C [5]: 41.6% | viability, T/C [6]: 37% | viability, T/C [7]: 66.7% | viability, T/C [8]: 79% | viability, T/C [9]: 62.4% | viability, T/C [10]: 43.7% | viability, T/C [11]: 24.8% | viability, T/C [12]: 31% | viability, T/C [13]: 18.2% | viability, T/C [14]: 17.2% | viability, T/C [15]: 12.4% | viability, T/C [16]: 10.2% | viability, T/C [17]: 12.2% | viability, T/C [18]: 10.7% | viability, T/C [19]: 0.31% | viability, T/C [20]: 0.25% | viability, T/C [21]: 0.25% | viability, T/C [22]: 0.29% | viability, T/C [23]: 0.14% | viability, T/C [24]: 0.21% | viability, T/C [25]: 0.18% | viability, T/C [26]: 0.21% | viability, T/C [27]: 0.22% | viability, T/C [28]: 0.18% | viability, T/C [29]: 0.5% | viability, T/C [30]: 0.21% | viability, T/C [31]: 0.08% | viability, T/C [32]: 0.14% | viability, T/C [33]: 0.14% | viability, T/C [34]: 0.15% | viability, T/C [35]: 0.29% | viability, T/C [36]: 0.17%
